Source: US20250179103A1, “6-OXODECAHYDROPYRROLO[1,2-A][1,5]DIAZOCINE AND 6-OXODECAHYDRO-4H-PYRROLO[2,1-D][1,5]THIAZOCINE DERIVATIVES AS STAT3 AND STAT6 MODULATORS FOR THE TREATMENT OF CANCER AND INFLAMMATORY CONDITIONS” (Recludix Pharma, Inc., priority 2022, published 2025)

Tests used:
[1] = biological target: T1, Recombinant STAT3 protein (STAT3(G127-I722)) (Homo sapiens, UniProt P40763); experiment: STAT3 Fluorescence Polarization (FP) Assay; assay type: binding; settings: STAT3(G127-I722) 25 nM, probe 5-FAM-GpYLPQTV-NH2 2 nM, 45-minute incubation
T1 construct: Recombinant STAT3 protein (STAT3(G127-I722))
Method in brief: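 Fluorescence polarization after a 45-min room-temperature incubation measured compound displacement of a 2 nM fluorescein-labelled phosphotyrosine peptide (5-FAM-GpYLPQTV-NH2) from 25 nM recombinant STAT3(G127-I722). Buffer was 10 mM HEPES pH 7.4 with 1% DMSO final. IC50s were fitted by nonlinear regression of mP against log concentration.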

[2] = biological target: T2, Recombinant STAT6 protein (STAT6(W123-T658)) (Homo sapiens, UniProt P42226); experiment: STAT6 Fluorescence Polarization (FP) Assay; assay type: binding; settings: STAT6(W123-T658) 250 nM, probe 5-FAM-ApYKPFQDLI-NH2 2 nM, 45-minute incubation
T2 construct: Recombinant STAT6 protein (STAT6(W123-T658))
T2 sequence (P42226 123-658): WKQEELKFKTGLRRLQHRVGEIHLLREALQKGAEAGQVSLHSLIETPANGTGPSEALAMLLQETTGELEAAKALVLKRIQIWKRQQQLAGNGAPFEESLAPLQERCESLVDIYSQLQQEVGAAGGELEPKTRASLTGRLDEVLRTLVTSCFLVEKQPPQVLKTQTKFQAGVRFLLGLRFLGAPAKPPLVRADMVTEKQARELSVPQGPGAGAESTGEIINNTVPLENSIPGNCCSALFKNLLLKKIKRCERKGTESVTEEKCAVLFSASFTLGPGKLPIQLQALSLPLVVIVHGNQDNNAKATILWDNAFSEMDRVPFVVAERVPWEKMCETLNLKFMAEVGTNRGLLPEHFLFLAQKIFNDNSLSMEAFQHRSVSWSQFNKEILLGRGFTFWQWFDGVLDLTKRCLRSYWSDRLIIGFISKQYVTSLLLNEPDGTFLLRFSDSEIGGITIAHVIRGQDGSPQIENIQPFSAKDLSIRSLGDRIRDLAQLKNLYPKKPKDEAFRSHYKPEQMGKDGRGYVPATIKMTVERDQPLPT
Method in brief: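 Displacement of a fluorescent phosphotyrosine peptide (5-FAM-ApYKPFQDLI-NH2, 2 nM) from STAT6(W123-T658) (250 nM), 1% DMSO, pH 7.4 HEPES buffer. After 45 min at room temperature, polarization (mP) was plotted versus log compound concentration and fitted by nonlinear regression to give IC50.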

T1 sequence (P40763 127-722): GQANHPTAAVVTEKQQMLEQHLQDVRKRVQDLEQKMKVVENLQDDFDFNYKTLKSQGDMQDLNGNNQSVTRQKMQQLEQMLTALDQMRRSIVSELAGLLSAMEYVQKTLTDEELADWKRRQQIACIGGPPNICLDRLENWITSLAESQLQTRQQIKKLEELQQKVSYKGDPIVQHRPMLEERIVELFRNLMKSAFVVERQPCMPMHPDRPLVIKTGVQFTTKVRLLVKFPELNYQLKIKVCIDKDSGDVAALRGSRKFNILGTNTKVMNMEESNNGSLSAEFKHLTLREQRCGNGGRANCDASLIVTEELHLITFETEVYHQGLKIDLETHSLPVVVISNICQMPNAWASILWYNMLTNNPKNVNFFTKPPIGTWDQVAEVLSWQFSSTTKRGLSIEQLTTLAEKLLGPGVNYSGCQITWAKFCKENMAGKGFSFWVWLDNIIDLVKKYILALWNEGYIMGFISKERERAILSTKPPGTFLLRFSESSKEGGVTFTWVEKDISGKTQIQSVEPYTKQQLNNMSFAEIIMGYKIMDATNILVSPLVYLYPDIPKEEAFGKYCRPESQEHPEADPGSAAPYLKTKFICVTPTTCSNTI

Row | IC50 [1] [nM] | IC50 [2] [nM] | SMILES
1 | 1000 to 10000 | ≤ 300 | CC(=O)N1CC[C@H]2CC[C@@H](C(=O)N3C[C@H](c4cc[nH]c(=O)c4)[C@@H](C#N)C3)N2C(=O)[C@@H](NC(=O)c2ccc3ccc(C(F)(F)P(=O)(O)O)cc3c2)C1 (single isomer, unassigned) [Compound 38, ((7-(((5S,8S,10aR)-3-acetyl-8-((3R,4S or 3S,4R)-3-cyano-4-(2-oxo-1,2-dihydropyridin-4-yl)pyrrolidine-1-carbonyl)-6-oxodecahydropyrrolo[1,2-a][1,5]diazocin-5-yl)carbamoyl)naphthalen-2-yl)difluoromethyl)phosphonic acid]
2 | 1000 to 10000 | ≤ 300 | CC(=O)N1CC[C@H]2CC[C@@H](C(=O)N3C[C@@H](C#N)[C@H](c4ccccc4)C3)N2C(=O)[C@@H](NC(=O)c2cc3cc(C(F)(F)P(=O)(O)O)ccc3s2)C1 (single isomer, unassigned) [Compound 52, ((2-(((5S,8S,10aR)-3-acetyl-8-((3S,4R or 3R,4S)-3-cyano-4-phenylpyrrolidine-1-carbonyl)-6-oxodecahydropyrrolo[1,2-a][1,5]diazocin-5-yl)carbamoyl)benzo[b]thiophen-5-yl)difluoromethyl)phosphonic acid]
3 | 1000 to 10000 | ≤ 300 | CC(=O)N1CC[C@H]2CC[C@@H](C(=O)N3C[C@H](C(N)=O)[C@@H](c4ccccc4)C3)N2C(=O)[C@@H](NC(=O)c2cc3cc(C(F)(F)P(=O)(O)O)ccc3s2)C1 (single isomer, unassigned) [Compound 59, ((2-(((5S,8S,10aR)-3-acetyl-8-((3R,4S or 3S,4R)-3-carbamoyl-4-phenylpyrrolidine-1-carbonyl)-6-oxodecahydropyrrolo[1,2-a][1,5]diazocin-5-yl)carbamoyl)benzo[b]thiophen-5-yl)difluoromethyl)phosphonic acid]
4 | 1000 to 10000 | ≤ 300 | CC(=O)N1CC[C@H]2CC[C@@H](C(=O)N3C[C@H](c4ccccc4)[C@@H](C#N)C3)N2C(=O)[C@@H](NC(=O)c2cc3cc(C(F)(F)P(=O)(O)O)ccc3[nH]2)C1 (single isomer, unassigned) [Compound 138, ((2-(((5S,8S,10aR)-3-acetyl-8-((3R,4S or 3S,4R)-3-cyano-4-phenylpyrrolidine-1-carbonyl)-6-oxodecahydropyrrolo[1,2-a][1,5]diazocin-5-yl)carbamoyl)-1H-indol-5-yl)difluoromethyl)phosphonic acid]

The next lines start with the molecule.

Row | SMILES | IC50 [1] [nM] | IC50 [2] [nM]
5 | CC(=O)N1CC[C@H]2CC[C@@H](C(=O)N3C[C@@H](C#N)[C@]4(C3)C(=O)Nc3ccccc34)N2C(=O)[C@@H](NC(=O)c2cc3cc(C(F)(F)P(=O)(O)O)ccc3s2)C1 (single isomer, unassigned) [Compound 12, ((2-(((5S,8S,10aR)-3-acetyl-8-((3S,4′S or 3R,4′R)-4′-cyano-2-oxospiro[indoline-3,3′-pyrrolidine]-1′-carbonyl)-6-oxodecahydropyrrolo[1,2-a][1,5]diazocin-5-yl)carbamoyl)benzo[b]thiophen-5-yl)difluoromethyl)phosphonic acid] | ≤ 100 | ≤ 300
6 | CC(=O)N1CC[C@H]2CC[C@@H](C(=O)N3C[C@H](C#N)[C@@]4(C3)C(=O)Nc3ccccc34)N2C(=O)[C@@H](NC(=O)c2cc3cc(C(F)(F)P(=O)(O)O)ccc3s2)C1 (single isomer, unassigned) [Compound 13, ((2-(((5S,8S,10aR)-3-acetyl-8-((3R,4′R or 3S,4′S)-4′-cyano-2-oxospiro[indoline-3,3′-pyrrolidine]-1′-carbonyl)-6-oxodecahydropyrrolo[1,2-a][1,5]diazocin-5-yl)carbamoyl)benzo[b]thiophen-5-yl)difluoromethyl)phosphonic acid] | 1000 to 10000 | 300 to 3000
7 | CC(=O)N1CC[C@H]2CC[C@@H](C(=O)N3C[C@@H](C#N)[C@H](c4cc[nH]c(=O)c4)C3)N2C(=O)[C@@H](NC(=O)c2ccc3ccc(C(F)(F)P(=O)(O)O)cc3c2)C1 (single isomer, unassigned) [Compound 39, ((7-(((5S,8S,10aR)-3-acetyl-8-((3S,4R or 3R,4S)-3-cyano-4-(2-oxo-1,2-dihydropyridin-4-yl)pyrrolidine-1-carbonyl)-6-oxodecahydropyrrolo[1,2-a][1,5]diazocin-5-yl)carbamoyl)naphthalen-2-yl)difluoromethyl)phosphonic acid] | 1000 to 10000 | ≤ 300
8 | CC(=O)N1CC[C@H]2CC[C@@H](C(=O)N3CC[C@H](Cc4cccnc4)C3)N2C(=O)[C@@H](NC(=O)c2cc3cc(C(F)(F)P(=O)(O)O)ccc3s2)C1 (single isomer, unassigned) [Compound 65, ((2-(((5S,8S,10aR)-3-acetyl-6-oxo-8-((S)-3-(pyridin-3-ylmethyl)pyrrolidine-1-carbonyl)decahydropyrrolo[1,2-a][1,5]diazocin-5-yl)carbamoyl)benzo[b]thiophen-5-yl)difluoromethyl)phosphonic acid or ((2-(((5S,8S,10aR)-3-acetyl-6-oxo-8-((R)-3-(pyridin-3-ylmethyl)pyrrolidine-1-carbonyl)decahydropyrrolo[1,2-a][1,5]diazocin-5-yl)carbamoyl)benzo[b]thiophen-5-yl)difluoromethyl)phosphonic acid] | 1000 to 10000 | 300 to 3000
9 | CC(=O)N1CC[C@H]2CC[C@@H](C(=O)N3C[C@@H](C#N)[C@H](c4ccccc4)C3)N2C(=O)[C@@H](NC(=O)c2cc3cc(C(F)(F)P(=O)(O)O)ccc3[nH]2)C1 (single isomer, unassigned) [Compound 139, ((2-(((5S,8S,10aR)-3-acetyl-8-((3S,4R or 3R,4S)-3-cyano-4-phenylpyrrolidine-1-carbonyl)-6-oxodecahydropyrrolo[1,2-a][1,5]diazocin-5-yl)carbamoyl)-1H-indol-5-yl)difluoromethyl)phosphonic acid] | 1000 to 10000 | ≤ 300
10 | CCN1CC[C@H]2CC[C@@H](C(=O)N3C[C@@H](C#N)[C@H](c4ccccc4)C3)N2C(=O)[C@@H](NC(=O)c2cc3cc(C(F)(F)P(=O)(O)O)ccc3s2)C1 (single isomer, unassigned) [Compound 222, ((2-(((5S,8S,10aR)-8-((3S,4R or 3R,4S)-3-cyano-4-phenylpyrrolidine-1-carbonyl)-3-ethyl-6-oxodecahydropyrrolo[1,2-a][1,5]diazocin-5-yl)carbamoyl)benzo[b]thiophen-5-yl)difluoromethyl)phosphonic acid] | 1000 to 10000 | 300 to 3000
11 | CCN1CC[C@H]2CC[C@@H](C(=O)N3C[C@@H](C#N)[C@H](c4ccccc4)C3)N2C(=O)[C@@H](NC(=O)c2cc3cc([C@H](F)P(=O)(O)O)ccc3s2)C1 (single isomer, unassigned) [Compound 232, ((R or S)-(2-(((5S,8S,10aR)-8-((3S,4R or 3R,4R)-3-cyano-4-phenylpyrrolidine-1-carbonyl)-3-ethyl-6-oxodecahydropyrrolo[1,2-a][1,5]diazocin-5-yl)carbamoyl)benzo[b]thiophen-5-yl)fluoromethyl)phosphonic acid] | 100 to 1000 | ≤ 300
